Data: patent publication US20040259948A1, “Reciprocal regulation of inflammation and lipid metabolism by liver X receptors” (priority 2003, published 2004)

Columns and labels:
[1] = tested on: human aortic endothelial cells; assay: TNF-induced gene expression in human aortic endothelial cells; type: cell-based; details: TNF 6 hours; real time qPCR
Procedure: (§1) Activation of LXR by synthetic ligands inhibits inflammatory gene expression in multiple human cell types (FIG. 7A-C). TNFα plays a role in the induction of inflammatory mediators in during inflammation. Cells were treated for 6 hours with TNF as indicated and gene expression was measured by real time qPCR.

[2] = tested on: Thioglycolate-elicited murine peritoneal macrophages; assay: IL-1β- or TNFα-induced inflammatory gene expression in macrophages; type: cell-based; details: pretreated 18 h; IL-1β or TNFα (50 ng/ml); real-time quantitative PCR
Procedure: Next, the influence of LXR agonists on inflammatory gene expression induced by IL-1β and TNFα, which have been implicated in the pathogenesis of atherosclerosis, was tested. […] Gene expression was detected by real-time quantitative PCR assays. […] Total RNA was isolated from individual aortas and gene expression was measured by real-time quantitative PCR. P<0.05 for MMP-9 (*) and P<0.01 (**) for ABCA1. […] Thus, LXR agonist reduces expression of an established inflammatory mediator in the vessel wall. Cell culture and transfections. Thioglycolate-elicited peritoneal macrophages were cultured in RPMI containing 10% fetal bovine serum (FBS). RAW 264.7 cells were cultured in DMEM containing 10% FBS. For ligand treatments, cells were in cultured medium supplemented with 5% lipoprotein-deficient serum (LPDS) and ligands for 18 h before stimulation. Bacterial infection in vitro was performed as described (Chen, L. M. et al. 1996 Mol Microbiol 21:1101-1115). Transient transfections of RAW 264.7 cells were performed in triplicate in 48-well plates using Superfect reagent (Life Technologies). After transfection, cells were incubated in medium containing 10% LPDS and the indicated ligands for 18 h before stimulation with LPS for an additional 18 h. Luciferase activity was normalized to β-galactosidase activity. NO production was determined spectrophotometrically (Castrillo, A. et al. 2000 Mol Cell Biol 20:1692-1698). RNA and protein analysis. Total RNA was extracted using Trizol reagent (Life Technologies, Inc.). Northern blot analysis was carried out as described using radiolabeled cDNA probes (Tontonoz, P. et al. 1998 Cell 93:241-252). Real-time quantitative PCR (TaqMan) analysis was performed using an Applied Biosystems 7700 sequence detector. Two-step real-time PCR was performed as described (Joseph, S. B. et al. 2002 J Biol Chem 277:11019-11025). The primers and probes used are as follows: […]

[3] = tested on: human peripheral blood mononuclear cells; assay: TNF-induced gene expression in human peripheral blood mononuclear cells; type: cell-based; details: TNF 6 hours; real time qPCR
Procedure: as §1

[4] = tested on: Thioglycolate-elicited murine peritoneal macrophages; assay: Expression of NF-κB target genes in LPS-treated macrophages (northern blot, real-time quantitative PCR); type: cell-based
Procedure: LPS is an established inducer of the NF-κB signaling pathway in macrophages. Several genes inhibited by LXR ligands in the array studies above are established targets of NF-κB. To further investigate the role of LXRs in NF-κB-dependent gene expression, we analyzed expression of NF-κB target genes in peritoneal macrophages from wild-type mice. […] Expression of NF-κB target genes was determined by northern blot (A) or by real-time quantitative PCR assays (B). 36B4 was used as a control for RNA loading and integrity. […] RNA and protein analysis. Total RNA was extracted using Trizol reagent (Life Technologies, Inc.). Northern blot analysis was carried out as described using radiolabeled cDNA probes (Tontonoz, P. et al. 1998 Cell 93:241-252). Real-time quantitative PCR (TaqMan) analysis was performed using an Applied Biosystems 7700 sequence detector. Two-step real-time PCR was performed as described (Joseph, S. B. et al. 2002 J Biol Chem 277:11019-11025). The primers and probes used are as follows: […]

[5] = tested on: Thioglycolate-elicited murine peritoneal macrophages; assay: LPS-stimulated macrophages: NO production, iNOS and ABCA1 mRNA; type: cell-based; details: for iNOS mRNA: 100 ng/ml LPS, 18 h, pretreated with 1 μM ligand, real-time quantitative PCR
Procedure: To investigate the role of LXRs in host defense, the influence of LXR agonists on macrophage responses to bacterial pathogens was tested. Thioglycolate-elicited peritoneal macrophages were infected in vitro with Escherichia coli. After 18 hours, expression of inducible nitric oxide synthase (iNOS) mRNA and nitric oxide (NO) production were assessed. […] This repression occurs over the same concentration range needed to induce the established LXR target gene ATP-binding cassette transporter A1 (ABCA1). A, LXR agonist inhibits nitrite production in response to bacterial infection. […] Cells were then infected with E. coli (A, B) or treated with 100 ng/ml LPS(C, D, E) as indicated. After 18 h, NO production was determined using a colorimetric assay (A, D), or mRNA levels were determined using real-time quantitative PCR assays (B, C, E). […] The inhibitory effect of LXR agonists on iNOS expression was dose-dependent and occurred over the same range of concentration as that required to induce ATP-binding cassette transporter A1 (ABCA1) (FIGS. 1D and E).
The anti-inflammatory activity of LXR ligands can be separated from the induction of lipid metabolism genes such as ABCA1. Murine peritoneal macrophages were treated with LPS to induce iNOS gene expression (FIG. 8A) and were assayed for ABCA1 mRNA by real time qPCR (FIG. 8B). NOx production was measured by colorimetric assay. […] The identification of LXR agonists with only anti-inflammatory activity should greatly increase the usefulness of such compounds as therapeutic agents, because they lack the unwanted side effects on lipid metabolism such as elevation of triglyceride levels.
Cell culture and transfections. Thioglycolate-elicited peritoneal macrophages were cultured in RPMI containing 10% fetal bovine serum (FBS). RAW 264.7 cells were cultured in DMEM containing 10% FBS. For ligand treatments, cells were in cultured medium supplemented with 5% lipoprotein-deficient serum (LPDS) and ligands for 18 h before stimulation. Bacterial infection in vitro was performed as described (Chen, L. M. et al. 1996 Mol Microbiol 21:1101-1115). Transient transfections of RAW 264.7 cells were performed in triplicate in 48-well plates using Superfect reagent (Life Technologies). After transfection, cells were incubated in medium containing 10% LPDS and the indicated ligands for 18 h before stimulation with LPS for an additional 18 h. Luciferase activity was normalized to β-galactosidase activity. NO production was determined spectrophotometrically (Castrillo, A. et al. 2000 Mol Cell Biol 20:1692-1698).
RNA and protein analysis. Total RNA was extracted using Trizol reagent (Life Technologies, Inc.). Northern blot analysis was carried out as described using radiolabeled cDNA probes (Tontonoz, P. et al. 1998 Cell 93:241-252). Real-time quantitative PCR (TaqMan) analysis was performed using an Applied Biosystems 7700 sequence detector. Two-step real-time PCR was performed as described (Joseph, S. B. et al. 2002 J Biol Chem 277:11019-11025). The primers and probes used are as follows: […]

[6] = tested on: C57B1/6 mice; assay: Murine model of irritant contact dermatitis (TPA-treated ear); type: in vivo; details: topical 20 μl of 10 mM at 45 min and 4 h post-TPA; 18 h; relative to vehicle-treated ear
Procedure: The effects of LXR ligands in both acute and chronic inflammatory contexts were evaluated. First, the effects of LXR agonists in a murine model of irritant contact dermatitis (Sheu, M. Y. et al. 2002 J Invest Dermatol 118:94-101) were studied. Ears of C57B1/6 mice (n=5 per group) were treated topically with 12-O-tetradecanoylphorbol-13-acetate (TPA) (left ear) or with vehicle (right ear). […] Thickness and weight of 6-mm punch biopsies were determined for each group after 18 h TPA treatment and are presented relative to vehicle-treated ear. […] Analysis of hematoxylin and eosin (H&E) stained sections of the TPA-treated ears confirmed a reduction in edema and inflammatory infiltrate by LXR agonist. Thus, two structurally unrelated LXR agonists have anti-inflammatory activity in a model of cutaneous inflammation.
Animals. Mice on a mixed background (C57B1/6 and 129v) and Apoe^−/− mice on a C57B1/6 background were maintained on standard chow. […] Irritant contact dermatitis was induced as described (Sheu, M. Y. et al. 2002 J Invest Dermatol 118:94-101). Briefly, 10 μl of 0.03% 12-O-tetradecanoylphorbol-13-acetate (TPA) in acetone was applied to the left ears of male mice. The right ears were treated with vehicle alone. […] After 18 h of TPA treatment, the thickness and weight of 6-mm punch biopsies were determined. Statistical analysis was performed using Student's t-test. Experiments were conducted in accordance of the Animal Research Committee of the University of California, Los Angeles.

[7] = tested on: human smooth muscle cells; assay: TNF-induced gene expression in human smooth muscle cells; type: cell-based; details: TNF 6 hours; real time qPCR
Procedure: as §1

[8] = tested on: Thioglycolate-elicited peritoneal macrophages; assay: Macrophage response to E. coli infection: iNOS mRNA and NO production; type: cell-based, murine; details: 18 h, pretreated with 1 μM ligand, real-time quantitative PCR
Procedure: Thioglycolate-elicited peritoneal macrophages were infected in vitro with Escherichia coli. After 18 hours, expression of inducible nitric oxide synthase (iNOS) mRNA and nitric oxide (NO) production were assessed. […] Cells were then infected with E. coli (A, B) or treated with 100 ng/ml LPS(C, D, E) as indicated. After 18 h, NO production was determined using a colorimetric assay (A, D), or mRNA levels were determined using real-time quantitative PCR assays (B, C, E).
Thioglycolate-elicited peritoneal macrophages were cultured in RPMI containing 10% fetal bovine serum (FBS). […] For ligand treatments, cells were in cultured medium supplemented with 5% lipoprotein-deficient serum (LPDS) and ligands for 18 h before stimulation. […] NO production was determined spectrophotometrically (Castrillo, A. et al. 2000 Mol Cell Biol 20:1692-1698).
Total RNA was extracted using Trizol reagent (Life Technologies, Inc.). […] Real-time quantitative PCR (TaqMan) analysis was performed using an Applied Biosystems 7700 sequence detector.

Question: With O=S(=O)(c1ccccc1)N(CC(F)(F)F)c1ccc(C(O)(C(F)(F)F)C(F)(F)F)cc1 [T1317, N-(2,2,2-trifluoro-ethyl)-N-[4-(2,2,2-trifluoro-1-hydroxy-1-trifluoromethyl-ethyl)-phenyl]-benzenesulfonamide] as the molecule, how does the TNF-induced gene expression [1] read?
Answer: Its TNF-induced gene expression is “inhibited”.

Question: What about the “induction of IL-6 expression” value [2] of the same molecule?
Answer: The value was “inhibit”.

Question: And the “induction of iNOS expression” value [2]?
Answer: Its value is “inhibit”.

Question: And the TNF-induced gene expression [3]?
Answer: The TNF-induced gene expression was “inhibited”.

Question: What about the “receptor-independent induction of IL-6” value [4] of the same molecule?
Answer: The value was “modest receptor-independent induction”.

Question: And the “receptor-independent induction of MCP-1” value [4]?
Answer: Its value is “modest receptor-independent induction”.

Question: And the “activation of ABCA1 gene expression, T1317 compared with GW3965” value ([5]; increasing doses, real time qPCR, FIG. 8B)?
Answer: Its value is “more effective activator”.

Question: And the ear thickness [6]?
Answer: The ear thickness was “reduced”.

Question: What about the “ear weight (6-mm punch biopsies)” value [6] of the same molecule?
Answer: The value was “reduced”.

Question: What about the TNF-induced gene expression [7] of the same molecule?
Answer: Its TNF-induced gene expression is “inhibited”.

Question: With Cc1cc(SCc2sc(-c3ccc(C(F)(F)F)cc3)nc2C)ccc1OCC(=O)O [GW1516] as the molecule, how does the “iNOS mRNA” value [5] read?
Answer: The value was “minimal effects”.

Question: What about the “iNOS mRNA” value [8] of the same molecule?
Answer: The value was “minimal effects”.

Question: Which results are given for GW7647?
Answer: iNOS mRNA [5]: minimal effects; iNOS mRNA [8]: minimal effects
